Experimental findings from US7449474B2, “Tri-substituted ureas as cytokine inhibitors” (The Procter & Gamble Company, priority 2004, dated 2008) are described below.

For this experiment, the system named is TNF-α. Briefly: Inhibition of TNF-α in lipopolysaccharide (LPS) stimulated human monocytic THP-1 cells. The format is cell-based. The note with it: LPS (1 μg/mL) stimulated THP-1 cells, 4 hours incubation, human TNF-α by ELISA. An excerpt: In addition, Tumor Necrosis Factor, TNF-α, inhibition can be measured by utilizing lipopolysaccharide (LPS) stimulated human monocytic cells (THP-1) as described in: • i) K. M. Mohler et al., “Protection Against a Lethal Dose of Endotoxin by an Inhibitor of Tumour Necrosis Factor Processing”, Nature, 370, pp 218-220 (1994). • ii) U.S. Pat. No. 6,297,381 B1 Cirillo et al., issued Oct. 2, 2001, incorporated by reference and reproduced herein below in relevant portion thereof.
The inhibition of cytokine production can be observed by measuring inhibition of TNF-α in lipopolysaccharide stimulated THP-1 cells. All cells and reagents are diluted in RPMI 1640 with phenol red and L-glutamine, supplemented with additional L-glutamine (total: 4 mM), penicillin and streptomycin (50 units/mL each) and fetal bovine serum (FBS 3%) (GIBCO, all conc. Final). Assay is performed under sterile conditions, only test compound preparation is non-sterile. Initial stock solutions are made in DMSO followed by dilution into RPMI 1640 2-fold higher than the desired final assay concentration. Confluent THP-1 cells ([…], final conc.; American Type Culture Company, Rockville, Md.) are added to 96 well polypropylene round bottomed culture plates (Costar 3790; sterile) containing 125 μL test compound (2-fold concentrated) or DMSO vehicle (controls, blanks). DMSO concentration should not exceed 0.2% final. Cell mixture is allowed to preincubate for 15 minutes at 37° C., 5% CO2 prior to stimulation with lipopolysaccharide (LPS, 1 μg/mL final; Sigma L-2630, from E. coli serotype 0111.B4; stored as 1 mg/mL stock in endotoxin screened diluted H2O vehicle at −80° C.). Blanks (unstimulated) receive H2O vehicle; final incubation volume is 250 μL. Incubation (4 hours) proceeds as described above. Assay is to be terminated by centrifuging plates 5 minutes at room temperature, 1600 rpm ([…]); supernatants are then transferred to clean 96 well plates and stored at −80° C. until analyzed for human TNF-α by a commercially available ELISA kit (Biosource #KHC3015, Camarillo, Calif.). The calculated IC50 value is the concentration of the test compound that caused a 50% decrease in the maximal TNF-α production.

With `CCNC(=O)N(c1ccc(OCC)cc1)c1ccnc(N[C@@H](C)COC)n1` [1-(4-Ethoxyphenyl)-1-{2-[(1S)-2-methoxy-1-methyl-ethylamino]-pyrimidin-4-yl}-3-ethyl-urea], inhibition was half-maximal at 276 nM (IC50).
In the case of `CCNC(=O)N(c1ccc(F)cc1)c1ccnc(NC(C)C)n1` [1-(4-Fluorophenyl)-1-[2-(iso-propylamino)-pyrimidin-4-yl]-3-ethyl-urea] it was 28 nM.
The molecule `CCNC(=O)N(c1ccc(F)cc1)c1ccnc(NC2CCOCC2)n1` [1-(4-Fluorophenyl)-1-[2-(tetrahydro-pyran-4-ylamino)-pyrimidin-4-yl]-3-ethyl-urea] had an IC50 of 86 nM.
For the molecule `CCNC(=O)N(c1ccc(F)cc1)c1ccnc(N[C@@H](C)C(C)(C)O)n1` [1-(4-Fluorophenyl)-1-{2-[(1S)-2-hydroxy-1,2-dimethyl-propylamino]-pyrimidin-4-yl}-3-ethyl-urea], the IC50 was 30 nM.
As to `CCNC(=O)N(c1ccc(OC)cc1)c1ccnc(N[C@@H](C)C(C)(C)O)n1` [1-(4-Methoxyphenyl)-1-{2-[(1S)-2-hydroxy-1,2-dimethyl-propylamino]-pyrimidin-4-yl}-3-ethyl-urea], the concentration for half-maximal inhibition (IC50) came to 16 nM.
`CCCCNC(=O)N(c1ccc(OC)cc1)c1ccnc(N[C@@H](C)COC)n1` [1-(4-Methoxyphenyl)-1-{2-[(1S)-2-methoxy-1-methyl-ethylamino]-pyrimidin-4-yl}-3-butyl-urea]: the 50% inhibitory concentration (IC50) amounted to 324 nM.
The figure for `CCNC(=O)N(c1ccc(OC)cc1)c1ccnc(N[C@@H](C)COC)n1` [1-(4-Methoxyphenyl)-1-{2-[(1S)-2-methoxy-1-methyl-ethylamino]-pyrimidin-4-yl}-3-ethyl-urea] is 666 nM.
As to `CCNC(=O)N(c1ccc(SC)cc1)c1ccnc(N[C@@H](C)COC)n1` [1-(4-Methylsulfanylphenyl)-1-{2-[(1S)-2-methoxy-1-methyl-ethylamino]-pyrimidin-4-yl}-3-ethyl-urea], 26 nM corresponded to half-maximal inhibition (IC50).
